# Key:
# Format in all cases: cell-based
# [1] = system: Helicobacter pylori TK1029 strain; test: Proliferation inhibitory effect (in vitro) by ED50 measurement, viable count; settings: BHI 2% FCS, viable count; for ED50 value, 15 hr later: 15 hr shaking culture; for ED50 value, 25 hr later: 25 hr shaking culture
# Procedure: Helicobacter pylori TK1029 strain (clinical isolate) was cultured in Brucella broth containing 10% FCS and 1×10^6 CFU of bacteria were respectively added to 3 mL of Brain-Heart Infusion Broth (BHI) media (previously added with free fatty acid (stearic acid, oleic acid, linoleic acid, ricinoleic acid, HYA) at 0, 0.5, 5, 50, 500 μg/mL) containing 2% FCS in a 6-well plate. Shaking culture was performed under conditions of temperature 37° C., humidity 100%, microaerobic (5% 02, 10% CO2, 85% N2), the culture medium (0.1 mL) from each well was applied to NISSUI plate, Helicobacter agar medium 15 hr and 25 hr later, and the number of colonies formed after microaerobic culture for 3 days was counted.
# [2] = system: Helicobacter pylori SS1 strain, TN2GF4 strain, TK1029 strain, RC-1 strain; test: Proliferation inhibitory effect (in vitro) of low concentration fatty acid, shaking culture 24 hr, colony count; settings: menaquinone (MK-4) 100 μg/mL added with fatty acid 20 μM
# Procedure: Helicobacter pylori SS1 strain, TN2GF4 strain, TK1029 strain, RC-1 strain were each inoculated to a 6-well plate containing 2 mL of a liquid medium (BHI added with 5% FCS), and fatty acid (20 μM) and menaquinone (MK-4) 100 μg/mL were added. After shaking culture for 24 hr at temperature 37° C., microaerobic conditions (5% 02, 10% CO2, 85% N2), the culture medium was applied on a Helicobacter agar plate, cultured for 3 days and the resulting colonies were counted (FIG. 2-1 A: SS1 strain, FIG. 2-2 B: TN2GF4 strain, FIG. 2-3 C: TK1029 strain, FIG. 2-4 D: RC-1 strain. Item 1: control (menaquinone no addition), Item 2: control (menaquinone 100 μg/mL addition), Item 3: HYA 20 μM (menaquinone no addition), Item 4: HYA 20 μM (menaquinone 100 μg/mL addition), Item 5: linoleic acid 20 μM (menaquinone no addition), Item 6: linoleic acid 20 μM (menaquinone 100 μg/mL addition). *, P<0.0001 vs. Control (ordinary one-way ANOVA)).
# [3] = system: Helicobacter pylori SS1 strain, TN2GF4 strain, ATCC43579 strain, NCTC11637 strain, TY281 strain, TY1345 strain; test: Proliferation inhibitory effect (in vitro), static culture 3 days, colony count; settings: menaquinone (MK-4) 100 μg/mL added with fatty acid
# Procedure: Helicobacter pylori SS1 strain, TN2GF4 strain, ATCC43579 strain, NCTC11637 strain, TY281 strain, TY1345 strain were each inoculated to a 6-well plate containing 3 mL of a liquid medium (Brucella broth added with 10% FCS), and fatty acid (200 μM or 1000 μM) and menaquinone (MK-4) 100 μg/mL were added. After static culture for 3 days at temperature 37° C., microaerobic conditions (5% 02, 10% 002, 85% N2), the culture medium was applied on a Helicobacter agar plate, cultured for 3 days and the resulting colonies were counted (FIG. 1-1 A: SS1 strain, FIG. 1-2 B: TN2GF4 strain, FIG. 1-3 C: ATCC43579 strain, FIG. 1-4 D: NCTC11637 strain, FIG. 1-5 E: TY281 strain, FIG. 1-6 F: TY1345 strain. Item C: control (no addition), Item 1: HYA addition, Item 2: HYA and menaquinone addition, Item 3: linoleic acid addition, Item 4: linoleic acid and menaquinone addition).
# [4] = system: Campylobacter jejuni ATCC33560 strain; test: Proliferation inhibitory effect (in vitro) on Campylobacter jejuni, absorbance and colony count; settings: 100, 200, 400 μM, 24 hr; concentration dependent; strong compared to linoleic acid
# [5] = system: Campylobacter coli ATCC33559 strain; test: Proliferation inhibitory effect (in vitro) on Campylobacter coli, absorbance and colony count; settings: 100, 200, 400 μM, 24 hr; concentration dependent; strong compared to linoleic acid
Compound,"ED50 value, 15 hr later [1] [µg/mL]","ED50 value, 25 hr later [1] [µg/mL]",other results
CCCCC/C=C\C/C=C\CCCCCCCC(=O)O [linoleic acid],50,50,–
"CC(C)=CCC/C(C)=C/CC/C(C)=C/CC/C(C)=C/CC1=C(C)C(=O)c2ccccc2C1=O [menaquinone (MK-4), menaquinone]",–,–,effect of menaquinone addition on inhibition of proliferation by fatty acid [2]: mitigated inhibition of proliferation; effect of menaquinone addition on inhibition of proliferation by fatty acid [3]: mitigated inhibition of proliferation
CCCCCCCC/C=C\CCCCCCCC(=O)O [oleic acid],50,>50,–
CCCCCC[C@@H](O)C/C=C\CCCCCCCC(=O)O [ricinoleic acid],5,0.5,–
CCCCCCCCCCCCCCCCCC(=O)O [stearic acid],500,>500,–
"CC/C=C\C/C=C\CC(O)CCCCCCCCC(=O)O (stereo not drawn) [αHYA, 10-hydroxy-cis-12,cis-15-octadecadienoic acid]",–,–,proliferation of Campylobacter jejuni ATCC33560 strain [4]: inhibited proliferation; proliferation of Campylobacter coli ATCC33559 strain [5]: inhibited proliferation
"CCCCC/C=C\CC(O)CC/C=C\CCCCC(=O)O (stereo not drawn) [γHYA, 10-hydroxy-cis-6,cis-12-octadecadienoic acid]",–,–,proliferation of Campylobacter jejuni ATCC33560 strain [4]: inhibited proliferation; proliferation of Campylobacter coli ATCC33559 strain [5]: inhibited proliferation
